In publication PMC11649380 (Inorganic chemistry, 2022):
Like-named read-outs stand apart in the source and are kept apart here.

Legend:
[1] = Aquation kinetics of axial ligand dissociation by 1H NMR spectroscopy; type: physicochemical; settings: for k1 × 10^5 (first aquation rate constant) / k2 × 10^4 (second aquation rate constant): 37 °C, pH 7.4 MOPS-buffered solution, 400 μM complex, 1H NMR; for half-life: mops buffer, pH 7.4
[2] = molecular target: T1, mitochondrial calcium uniporter (MCU) (Homo sapiens, UniProt Q8NE86); assay: Mitochondrial Ca2+ uptake inhibition in digitonin-permeabilized HEK293T cells; type: cell-based
T1 sequence (Q8NE86 51-351): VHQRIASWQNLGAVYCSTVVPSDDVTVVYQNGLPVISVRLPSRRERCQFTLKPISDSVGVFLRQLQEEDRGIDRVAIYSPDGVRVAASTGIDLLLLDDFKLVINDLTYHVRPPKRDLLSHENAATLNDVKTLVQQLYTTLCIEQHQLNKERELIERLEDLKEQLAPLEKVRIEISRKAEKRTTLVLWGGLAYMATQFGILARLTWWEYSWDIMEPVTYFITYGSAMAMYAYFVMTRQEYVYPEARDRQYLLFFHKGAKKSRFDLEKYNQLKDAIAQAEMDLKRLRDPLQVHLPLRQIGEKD
T1 sequence (Q9H4I9 48-107 partner limits assumed): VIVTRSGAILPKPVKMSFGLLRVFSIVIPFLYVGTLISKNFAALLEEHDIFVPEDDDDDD

[3] = tested on: HeLa cells; assay: Cellular uptake by GFAAS in HeLa cells; type: cell-based; settings: 50 μM for 2 h
[4] = tested on: HEK293T cells; assay: Cellular uptake by GFAAS in HEK293T cells; type: cell-based; settings: 50 μM for 2 h
[5] = molecular target: T2, organic cation transporter 3 (OCT3) (Homo sapiens, UniProt O75751); assay: Role of OCT3 in cellular uptake; type: cell-based; settings: HeLa, 50 μM complex, 1 μM decynium-22, 3 h
T2 sequence (O75751 1-556): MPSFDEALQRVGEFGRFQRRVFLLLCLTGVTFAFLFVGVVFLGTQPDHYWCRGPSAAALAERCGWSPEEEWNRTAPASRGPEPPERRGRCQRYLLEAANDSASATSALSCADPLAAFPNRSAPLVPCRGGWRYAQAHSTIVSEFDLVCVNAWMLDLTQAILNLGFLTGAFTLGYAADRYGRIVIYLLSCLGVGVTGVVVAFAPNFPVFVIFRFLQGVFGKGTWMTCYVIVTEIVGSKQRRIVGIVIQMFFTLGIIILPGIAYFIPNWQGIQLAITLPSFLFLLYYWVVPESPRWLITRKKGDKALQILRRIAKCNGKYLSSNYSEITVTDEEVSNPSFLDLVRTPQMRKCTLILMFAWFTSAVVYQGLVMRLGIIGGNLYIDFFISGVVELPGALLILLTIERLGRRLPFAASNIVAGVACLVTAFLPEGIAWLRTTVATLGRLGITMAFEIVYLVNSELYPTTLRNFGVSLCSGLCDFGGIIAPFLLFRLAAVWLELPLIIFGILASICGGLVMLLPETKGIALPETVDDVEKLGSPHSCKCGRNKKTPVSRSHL

[6] = ref [51], cited from earlier work
[7] = molecular target: T1, mitochondrial calcium uniporter (MCU); settings: read-out: IC50 of MCU-mediated mCa2+ uptake inhibition; permeabilized HEK293T cells (1 × 10^7 cells/mL); ref [46]; cited from earlier work

| Compound | k1 × 10^5 (first aquation rate constant) [1] | k2 × 10^4 (second aquation rate constant) [1] | half-life [1] | further results |
| --- | --- | --- | --- | --- |
| N.N.N.N.N.N.N.N.O=C[O-].O=C[O-].[N-3].[Ru+4].[Ru+4] [Complex 1, [(HCO2)Ru(NH3)4(μ-N)Ru(NH3)4(O2CH)](NO3)3] | 5.9 ± 0.2 s^−1 | 3.6 ± 0.3 s^−1 | 3.3 ± 0.1 h |  |
| CC(=O)[O-].CC(=O)[O-].N.N.N.N.N.N.N.N.[N-3].[Ru+4].[Ru+4] [Complex 2, [(CH3CO2)Ru(NH3)4(μ-N)Ru(NH3)4(O2CCH3)](NO3)3] | 2.0 ± 0.5 s^−1 | 3.0 ± 1.2 s^−1 | 9.9 ± 2.4 h |  |
| CCC(=O)[O-].CCC(=O)[O-].N.N.N.N.N.N.N.N.[N-3].[Ru+4].[Ru+4] [Complex 3, [(CH3CH2CO2)Ru(NH3)4(μ-N)Ru(NH3)4(O2CCH2CH3)](NO3)3] | 2.8 ± 0.1 s^−1 | 3.3 ± 0.5 s^−1 | 6.9 ± 0.2 h |  |
| CCCC(=O)[O-].CCCC(=O)[O-].N.N.N.N.N.N.N.N.[N-3].[Ru+4].[Ru+4] [Complex 4, [(CH3(CH2)2CO2)Ru(NH3)4(μ-N)Ru(NH3)4(O2C(CH2)2CH3)](OSO2CF3)3] | 3.2 ± 0.1 s^−1 | 2.8 ± 0.2 s^−1 | 5.9 ± 0.2 h | IC50 [2]: 18.7 ± 0.1 nM |
| N.N.N.N.N.N.N.N.[Cl][Ru+3].[N-]=[Ru][Cl] [Ru265, [ClRu(NH3)4(μ-N)Ru(NH3)4Cl]Cl3] |  |  |  | mCa2+ uptake at 1 μM ([2]; freshly prepared 1 μM solutions, permeabilized HEK293T cells): complete abrogation of mCa^2+ uptake; cellular uptake (intracellular Ru accumulation) [3]: taken up by both cell lines to a similar extent; cellular uptake (intracellular Ru accumulation) [4]: taken up by both cell lines to a similar extent; cellular uptake in the presence of the OCT3 inhibitor decynium-22 [5]: diminished in the presence of the OCT3 inhibitor; t1/2 (1) (half-life of first aquation step) ([6]; 37 °C, UV-vis spectroscopy): 2.28 min; k1 × 10^5 (first aquation rate constant) ([6]; 37 °C, determined using UV-vis spectroscopy, first aquation step only): 49.2 s^−1; half-life of aquation of axial chloride ligands ([6]; same conditions (pH 7.4, 37 °C)): approximately 2 min |
| N.N.N.N.N.N.N.N.[Cl][Ru+3].[NH]=[Ru][Cl] [Ru265, [ClRu(NH3)4(μ-N)Ru(NH3)4Cl]Cl3] |  |  |  | IC50 [7]: 8.6 ± 2.2 nM |
